Experiments:
[1] = test system: Mytilus edulis gill tissue; test: Protein expression changes in gill tissue by 2D electrophoresis after 24 h exposure
Method: Gill tissue previously flash frozen in liquid nitrogen was mechanically homogenized in cold buffer containing phenyl-methylsulfonyl fluoride and dithiothreotol (PMSF and DTT, protease inhibitors). Cellular debris was removed by centrifugation (13000×g for 5 min). Total protein concentration of the supernatant containing the soluble protein fraction was determined using the Bradford method.
Spots on each gel were detected and compared using Medical Electrophoresis Analysis Interactive Expert System (MELANIE II™) 2D analysis software (Biorad). […] Those spots detectable on the treatment composites only were considered present. Each spot of interest, present or absent, on the treatment composites was identified on all original gels from a treatment group before being considered part of the protein expression signature.

Mytilus edulis = test: Protein expression signature by 2D electrophoresis of whole body homogenate after 7 day exposure
Method: Protein expression signatures, including those proteins induced and those proteins suppressed by exposure, were isolated for each treatment group.
Eight blue mussels Mytilus edulis 2-3 cm in size were collected from a natural population 3M deep. Ambient salinity and temperature were a salinity of 6.3 ppt and a temperature of 7° C. The mussels were put in tanks for acclimation for 24 hours at the same temperature and salinity as collection. […] Water was changed every other day and continuously aerated. At the end of the 7 day exposure, mussels were removed from the shell and flash frozen in liquid nitrogen before being freeze dried for later analysis.
Freeze dried whole body tissue was mechanically homogenized in cold buffer containing phenyl-methylsulfonyl fluoride and dithiothreotol (PMSF and DTT, protease inhibitors) and tris buffer pH 5.5. After mechanical homogenization, samples were boiled to further break down cells, and cellular debris was removed by centrifugation (13000×g for 5 min). Total protein concentration was determined using methods based on the Bradford method (Biorad).
The supernatant containing the soluble protein fraction was separated using two dimensional electrophoresis (Biorad Miniprotean II™). […] Gels from each treatment were compared for changes in pattern and key components using Medical Electrophoresis Analysis Interactive Expert System (MELANIE II™) 2D analysis software (Biorad) and data compiled using a database developed by this laboratory. Composite gels were produced from each treatment set and compared to one another. Proteins uniquely present (induced (expressed)) or absent (suppressed) in each treatment were identified. Those present or absent in all the original component gels were included in the protein expression signature (PES) for each treatment.

[2] = 20, 40, 60, 80 ppb CuSO4, 24 hrs
[3] = 7 days exposure, 70 ppb copper, 1 ppb Aroclor 1248, whole body
[4] = signature proteins also found with 70 ppb copper combined with lowered salinity (3 ppt), 7 days

Structure (SMILES)	Protein spots absent at all treatment levels compared to controls [1, 2] [spots]	Protein spots present at all treatment levels compared to controls [1, 2] [protein spots]	Key Protein Changes (number of key proteins present and absent specifically) ([1]; 20 ppb CuSO4, 24 hrs, gill tissue)	Number of proteins specifically absent at a single dosage level ([1]; 20 ppb, 24 hrs) [protein spots]	Key Protein Changes (number of key proteins present and absent specifically) ([1]; 40 ppb CuSO4, 24 hrs, gill tissue)	Key Protein Changes (number of key proteins present and absent specifically) ([1]; 60 ppb CuSO4, 24 hrs, gill tissue)	Key Protein Changes (number of key proteins present and absent specifically) ([1]; 80 ppb CuSO4, 24 hrs, gill tissue)	Number of proteins specifically absent at a single dosage level ([1]; 80 ppb, 24 hrs) [protein spots]	Key Protein Changes (number of key proteins present and absent) ([1]; All Dosages (20, 40, 60, 80 ppb CuSO4), 24 hrs, gill tissue)	Proteins of the signature identified in organisms treated with copper and lowered salinity simultaneously (Mytilus edulis; 70 ppb copper plus salinity 3 ppt, 7 days)	Protein expression signature (induced and suppressed), number of proteins (Mytilus edulis; 7 days exposure, 70 ppb copper, 1 ppb Aroclor 1248) [proteins]	Unique Induction: number of proteins specifically induced (present) (Mytilus edulis; [3]) [proteins]	Unique Suppression: number of proteins specifically suppressed (absent) (Mytilus edulis; [3]) [proteins]	Copper/Salinity shared signal, induced proteins (Mytilus edulis; [4]) [proteins]	Copper/Salinity shared signal, suppressed proteins (Mytilus edulis; [4]) [proteins]
O=S(=O)([O-])[O-].[Cu+2] [CuSO4, copper sulfate]	2	11	27	14	14	19	10	6	13						
[Cu] [Copper, copper]										Five	23	13	10	3	2

Source: US6653135B1, “Dynamic protein signature assay” (University of Maryland, priority 2000, dated 2003)
